Assay results taken from patent publication US11324798B2, “Materials and methods for treatment of inflammation” (CYTOGEL PHARMA, LLC, priority 2010, dated 2022).
Values joined by “and” are separate entries in the source; they are usually repeats but may differ in a detail not shown here. Equal entries are not always repeated.

Test system: CGRP release from isolated rat tracheae
Assay: Electrical field stimulation (EFS)-evoked release of CGRP from isolated rat tracheae, radioimmunoassay
Type: cell-based
Settings: for Release of CGRP into the incubation medium / Absolute release of CGRP: individual experiments 1-5; for Release of CGRP into the incubation medium, Mean / Absolute release of CGRP, Mean: mean of 5 experiments
Protocol: For the in vitro release experiments, a 10 mg/ml (14.62 mM; MW 684) stock solution of CYT-1010 was made in DMSO, which was further diluted with the oxygenated Krebs solution used in the organ bath: 5.5 μl of this CYT-1010 stock solution was added into 40 ml Krebs to make the highest applied 2 μM concentration of compound CYT-1010. Further dilutions to obtain the lower concentrations were prepared with Krebs solution.
The incubation media containing the respective CYT-1010 concentrations were administered in the stimulated and post-stimulated 8-min fractions.
Since even the highest, 2 μM, concentration of CYT-1010 solution contained negligible amount of DMSO, simple Krebs solution was used in the control experiments.
Rats were exsanguinated in deep anaesthesia (sodium thiobarbital, 50 mg/kg i.p.), then the whole trachea was removed and cleaned of fat and adhering connective tissues. Tracheae from two rats were placed into the same 1.8 ml organ bath to obtain sufficient amount of released peptide and perfused (1 ml/min) with pH-(7.2) controlled oxygenized Krebs solution for 60 minutes (equilibration period) at 37° C. temperature. After discontinuation of the flow, the solution was changed three times for eight minutes to produce pre-stimulated, stimulated, post-stimulated fractions.
Electrical field stimulation (40 V, 0.1 ms, 10 Hz for 120 s; 1200 pulses) was performed to elicit neurotransmitter release at the beginning of the second 8-minute period. Stimulation with 0.1 ms pulse width selectively activates very fast Na^+ channels, which are only present in the membrane of neural structures (Birmingham and Wilson, 1963; Coburn and Tomita 1973; Szolcsányi and Barthó, 1982); therefore, it excites nerve endings without influencing other excitable cells in the tracheae such as smooth muscle cells.
Krebs solution was used in the pre-stimulated fraction for determining the basal CGRP outflow. During the stimulated and post-stimulated fractions, the incubation medium contained the examined concentrations of CYT-1010 (10, 100, 500, 1000 and 2000 nM) in separate experiments, and only one concentration was applied to the same tracheae to avoid neuropeptide depletion. In each group, 5 experiments were performed in parallel in 5 perfusion systems to provide n=5 data per group (10 tracheae per group).
60 male Wistar rats (250-300 g) altogether were divided into 6 experimental groups: Group 1: controls (n=10); Group 2: 10 nM CYT-1010 (n=10); Group 3: 100 nM CYT-1010 (n=10); Group 4: 500 nM CYT-1010 (n=10); Group 5: 1000 nM CYT-1010 (n=10); and Group 6: 2000 nM CYT-1010 (n=10). The total study was performed on three experimental days, two groups every occasion.
Calcitonin gene-related peptide (CGRP) and substance P (SP) concentrations were determined from 400-400 μl samples of organ fluid of the preparations by means of radioimmunoassay methods described in Nemeth et al., 1996, 1998, 1999, 2006; Helyes et al., 1997, 2001, 2006; Borzsei et al., 2008). Each of these publications is incorporated herein by reference in its entirety.
The released amount of the peptides CGRP and SP was calculated as fmol peptide per mg wet tissue (trachea). The absolute release in response to EFS in each experiment was calculated by adding peptide release in the second and third 8-min fractions and then taking off the basal release measured in the first (pre-stimulated) fraction. The detection limits of the RIA assays were 0.2 fmol/tube and 2 fmol/tube for CGRP and SP, respectively.

In the case of `NC(Cc1ccc(O)cc1)C(=O)NC1CCCCNC(=O)C(Cc2ccccc2)NC(=O)C(Cc2c[nH]c3ccccc23)NC1=O` [CYT-1010, H-Tyr-c-[D-Lys-Trp-Phe]], the “Effect on CGRP release in the third, post-stimulated fraction” value (10 nM) is reported as “did not influence”, the “CGRP release, % increase above baseline” value (10 nM, after stimulation) is reported as 105.75% and the “Release of CGRP into the incubation medium” value (10 nM, after stimulation (post-stimulated 8-min fraction)) is reported as 0.602 fmol/mg wet tissue and 0.730 fmol/mg wet tissue and 0.193 fmol/mg wet tissue and 0.204 fmol/mg wet tissue and 0.528 fmol/mg wet tissue. The “Release of CGRP into the incubation medium, Mean” value (10 nM, after stimulation (post-stimulated fraction)) was 0.451 fmol/mg wet tissue, the “CGRP release, % increase above baseline” value (10 nM, before stimulation) was 0.00% and the “Release of CGRP into the incubation medium” value (10 nM, before stimulation (pre-stimulated 8-min fraction)) was 0.220 fmol/mg wet tissue and 0.250 fmol/mg wet tissue and 0.146 fmol/mg wet tissue and 0.256 fmol/mg wet tissue and 0.226 fmol/mg wet tissue. The “Release of CGRP into the incubation medium, Mean” value (10 nM, before stimulation (pre-stimulated fraction)) was 0.219 fmol/mg wet tissue, the “CGRP release, % increase above baseline” value (10 nM, during stimulation) was 105.75% and the “Release of CGRP into the incubation medium” value (10 nM, during stimulation (stimulated 8-min fraction)) was 0.600 fmol/mg wet tissue and 0.420 fmol/mg wet tissue and 0.299 fmol/mg wet tissue and 0.308 fmol/mg wet tissue and 0.630 fmol/mg wet tissue. The “Release of CGRP into the incubation medium, Mean” value (10 nM, during stimulation (stimulated fraction)) was 0.451 fmol/mg wet tissue, the “Absolute release of CGRP” value (10 nM) was 0.762 fmol/mg wet tissue and 0.650 fmol/mg wet tissue and 0.201 fmol/mg wet tissue and 0.001 fmol/mg wet tissue and 0.706 fmol/mg wet tissue and the “Absolute release of CGRP, Mean” value (10 nM) was 0.464 fmol/mg wet tissue. The “CGRP release, % increase above baseline” value (100 nM, after stimulation) was 39.26%, the “Release of CGRP into the incubation medium” value (100 nM, after stimulation (post-stimulated 8-min fraction)) was 0.284 fmol/mg wet tissue and 0.135 fmol/mg wet tissue and 0.267 fmol/mg wet tissue and 0.231 fmol/mg wet tissue and 0.226 fmol/mg wet tissue and the “Release of CGRP into the incubation medium, Mean” value (100 nM, after stimulation (post-stimulated fraction)) was 0.229 fmol/mg wet tissue. For the same molecule, the “CGRP release, % increase above baseline” value (100 nM, before stimulation) was 0.00%, the “Release of CGRP into the incubation medium” value (100 nM, before stimulation (pre-stimulated 8-min fraction)) was 0.243 fmol/mg wet tissue and 0.129 fmol/mg wet tissue and 0.128 fmol/mg wet tissue and 0.138 fmol/mg wet tissue and 0.183 fmol/mg wet tissue and the “Release of CGRP into the incubation medium, Mean” value (100 nM, before stimulation (pre-stimulated fraction)) was 0.164 fmol/mg wet tissue. The “CGRP release, % increase above baseline” value (100 nM, during stimulation) was 184.81%, the “Release of CGRP into the incubation medium” value (100 nM, during stimulation (stimulated 8-min fraction)) was 0.586 fmol/mg wet tissue and 0.281 fmol/mg wet tissue and 0.526 fmol/mg wet tissue and 0.390 fmol/mg wet tissue and 0.554 fmol/mg wet tissue and the “Release of CGRP into the incubation medium, Mean” value (100 nM, during stimulation (stimulated fraction)) was 0.468 fmol/mg wet tissue. For the same molecule, the “Absolute release of CGRP” value (100 nM) was 0.384 fmol/mg wet tissue and 0.159 fmol/mg wet tissue and 0.538 fmol/mg wet tissue and 0.344 fmol/mg wet tissue and 0.415 fmol/mg wet tissue, the “Absolute release of CGRP, Mean” value (100 nM) was 0.368 fmol/mg wet tissue and the “Inhibition of EFS-evoked absolute CGRP release” value (“Inhibition” below) (500 nM (maximal effect), 0.5 µM) was 69.9% and 70%. The “CGRP release, % increase above baseline” value (500 nM, after stimulation) was 48.89%, the “Release of CGRP into the incubation medium” value (500 nM, after stimulation (post-stimulated 8-min fraction)) was 0.137 fmol/mg wet tissue and 0.206 fmol/mg wet tissue and 0.267 fmol/mg wet tissue and 0.224 fmol/mg wet tissue and 0.213 fmol/mg wet tissue and the “Release of CGRP into the incubation medium, Mean” value (500 nM, after stimulation (post-stimulated fraction)) was 0.210 fmol/mg wet tissue. For the same molecule, the “CGRP release, % increase above baseline” value (500 nM, before stimulation) was 0.00%, the “Release of CGRP into the incubation medium” value (500 nM, before stimulation (pre-stimulated 8-min fraction)) was 0.136 fmol/mg wet tissue and 0.148 fmol/mg wet tissue and 0.146 fmol/mg wet tissue and 0.118 fmol/mg wet tissue and 0.157 fmol/mg wet tissue and the “Release of CGRP into the incubation medium, Mean” value (500 nM, before stimulation (pre-stimulated fraction)) was 0.141 fmol/mg wet tissue. The “CGRP release, % increase above baseline” value (500 nM, during stimulation) was 70.52%, the “Release of CGRP into the incubation medium” value (500 nM, during stimulation (stimulated 8-min fraction)) was 0.162 fmol/mg wet tissue and 0.301 fmol/mg wet tissue and 0.304 fmol/mg wet tissue and 0.192 fmol/mg wet tissue and 0.241 fmol/mg wet tissue and the “Release of CGRP into the incubation medium, Mean” value (500 nM, during stimulation (stimulated fraction)) was 0.240 fmol/mg wet tissue. The “Absolute release of CGRP” value (500 nM) was 0.028 fmol/mg wet tissue and 0.212 fmol/mg wet tissue and 0.279 fmol/mg wet tissue and 0.181 fmol/mg wet tissue and 0.140 fmol/mg wet tissue, the “Absolute release of CGRP, Mean” value (500 nM) was 0.168 fmol/mg wet tissue and the “Inhibition” value (1000 nM, 1 µM) was 66.3% and 66%. For the same molecule, the “Inhibition” value (2000 nM) was 49.1%, the “CGRP release, % increase above baseline” value (1 microM, after stimulation) was 29.82% and the “Release of CGRP into the incubation medium” value (1 microM, after stimulation (post-stimulated 8-min fraction)) was 0.386 fmol/mg wet tissue and 0.162 fmol/mg wet tissue and 0.130 fmol/mg wet tissue (2×) and 0.121 fmol/mg wet tissue. The “Release of CGRP into the incubation medium, Mean” value (1 microM, after stimulation (post-stimulated fraction)) was 0.186 fmol/mg wet tissue, the “CGRP release, % increase above baseline” value (1 microM, before stimulation) was 00.0% and the “Release of CGRP into the incubation medium” value (1 microM, before stimulation (pre-stimulated 8-min fraction)) was 0.262 fmol/mg wet tissue and 0.135 fmol/mg wet tissue and 0.108 fmol/mg wet tissue (2×) and 0.102 fmol/mg wet tissue. For the same molecule, the “Release of CGRP into the incubation medium, Mean” value (1 microM, before stimulation (pre-stimulated fraction)) was 0.143 fmol/mg wet tissue and the “CGRP release, % increase above baseline” value (1 microM, during stimulation) was 101.59%.
